Assay results: article PMC9571063 (Molecules, 2022)
pIC50: −log10 of the molar value. Counter-ions that a name gives are not always drawn. Like-named read-outs stand apart in the source and are kept apart here.

How the values were obtained:
[1] = target: T1, HsDYRK1A (Homo sapiens, UniProt Q13627); experiment: ADP-Glo kinase assay; assay type: biochemical; conditions: for remaining activity at 1 µM / remaining activity at 10 µM: n=2, read-out: % of residual activity Hs_DYRK1A
T1 construct: host or cells: Sf9 insect cells (baculovirus)

[2] = target: T2, MmCLK1 (Mus musculus, UniProt P22518); experiment: ADP-Glo kinase assay; assay type: biochemical; conditions: for remaining activity at 1 µM / remaining activity at 10 µM: n=2, read-out: % of residual activity Mm_CLK1
T2 construct: host or cells: bacteria

[3] = target: T3, Hs_CDK5/p25 (Homo sapiens, UniProt Q00535); experiment: ADP-Glo kinase assay, primary screen; assay type: biochemical; conditions: n=2, read-out: % of residual activity Hs_CDK5/p25
T3 construct: host or cells: bacteria

[4] = target: T4, Hs_CDK9/CyclinT (Homo sapiens, UniProt P50750); experiment: ADP-Glo kinase assay, primary screen; assay type: biochemical; conditions: n=2, read-out: % of residual activity Hs_CDK9/CyclinT
T4 construct: host or cells: Sf9 insect cells (baculovirus)

[5] = target: T5, Hs_PIM1 (Homo sapiens, UniProt P11309); experiment: ADP-Glo kinase assay, primary screen; assay type: biochemical; conditions: n=2, read-out: % of residual activity Hs_PIM1
T5 construct: host or cells: Sf9 insect cells (baculovirus)

[6] = target: T6, Rn_DYRK1A (Rattus norvegicus, UniProt Q63470); experiment: ADP-Glo kinase assay, primary screen; assay type: biochemical; conditions: n=2, read-out: % of residual activity Rn_DYRK1A
T6 construct: host or cells: bacteria

[7] = target: T7, Hs_HASPIN (Homo sapiens, UniProt Q8TF76); experiment: ADP-Glo kinase assay, primary screen; assay type: biochemical; conditions: n=2, read-out: % of residual activity Hs_HASPIN
T7 construct: host or cells: bacteria
T7 sequence (Q8TF76 1-798): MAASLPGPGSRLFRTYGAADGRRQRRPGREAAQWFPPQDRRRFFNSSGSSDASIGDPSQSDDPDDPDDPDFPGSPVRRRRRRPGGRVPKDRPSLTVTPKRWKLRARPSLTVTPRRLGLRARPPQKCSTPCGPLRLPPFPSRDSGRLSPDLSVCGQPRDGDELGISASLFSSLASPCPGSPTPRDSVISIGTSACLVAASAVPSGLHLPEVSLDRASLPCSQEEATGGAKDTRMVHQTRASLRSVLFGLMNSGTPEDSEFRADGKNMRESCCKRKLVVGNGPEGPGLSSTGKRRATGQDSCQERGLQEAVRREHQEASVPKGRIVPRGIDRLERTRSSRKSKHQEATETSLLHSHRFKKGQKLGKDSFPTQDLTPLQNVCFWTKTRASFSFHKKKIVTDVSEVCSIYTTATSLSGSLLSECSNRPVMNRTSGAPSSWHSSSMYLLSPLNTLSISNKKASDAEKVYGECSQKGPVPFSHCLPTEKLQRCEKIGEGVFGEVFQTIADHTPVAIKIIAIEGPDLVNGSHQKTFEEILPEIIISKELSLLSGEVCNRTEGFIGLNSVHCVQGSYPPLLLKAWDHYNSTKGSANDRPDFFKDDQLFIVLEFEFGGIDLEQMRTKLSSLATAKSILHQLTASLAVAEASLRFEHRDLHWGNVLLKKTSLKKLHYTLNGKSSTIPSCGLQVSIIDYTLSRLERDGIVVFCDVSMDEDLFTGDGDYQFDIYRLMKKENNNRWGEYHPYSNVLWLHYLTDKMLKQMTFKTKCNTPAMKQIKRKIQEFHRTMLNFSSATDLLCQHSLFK

[8] = target: T8, Hs_GSK3β (Homo sapiens, UniProt P49841); experiment: ADP-Glo kinase assay, primary screen; assay type: biochemical; conditions: n=2, read-out: % of residual activity Hs_GSK3β
T8 construct: host or cells: Sf9 insect cells (baculovirus)

[9] = target: T9, Hs_CK1ε (Homo sapiens, UniProt P49674); experiment: ADP-Glo kinase assay, primary screen; assay type: biochemical; conditions: n=2, read-out: % of residual activity Hs_CK1ε
T9 construct: host or cells: Sf9 insect cells (baculovirus)

[10] = cytotoxic assay, nuclei count (Hoechst, HCS); assay type: cell-based; conditions: human, HuH7 cells (hepatocellular carcinoma); 48 h treatment; read-out: Cytotoxic studies IC50 HuH7
[11] = cytotoxic assay, nuclei count (Hoechst, HCS); assay type: cell-based; conditions: human, Caco-2 cells (colorectal adenocarcinoma); 48 h treatment; read-out: Cytotoxic studies IC50 Caco2
[12] = cytotoxic assay, nuclei count (Hoechst, HCS); assay type: cell-based; conditions: human, MDA-MB-231 cells (breast carcinoma); 48 h treatment; read-out: Cytotoxic studies IC50 MDA-MB-231
[13] = cytotoxic assay, nuclei count (Hoechst, HCS); assay type: cell-based; conditions: human, 48 h treatment
Protocol: (§1) To complete our study, we performed a cytotoxicity screening of the 15 molecules, investigating 7 representative cancer cell lines. The compound’s effect on cell viability was evaluated on Huh-7 (hepatocellular carcinoma), CaCo2, HCT-116 (colorectal adenocarcinoma), MCF7, MDA-MB231, MDA-MB468 (breast carcinoma), PC3 (prostate carcinoma) and NCI-H727 (lung carcinoid). Human skin fibroblasts were used as reference for non-cancerous cells. Roscovitine, Doxorubicin and Taxol were used as positive controls. The cells were treated for 48 h with 25 µM compounds and fixed in cooled 90% ethanol/5% acetic acid for 20 min. The nuclei were stained with Hoechst 33342 and counted using HCS technology.
(§2) HuH7, CaCo-2, MDA-MB-231, HCT116, PC3, MCF7 and NCI-H727 cancer cell lines were obtained from the ECACC collection (Porton Down, UK). Cells were grown at 37 °C, 5% CO2 in ECACC recommended media: DMEM for HuH7, MDA-MB-231 and fibroblast, EMEM for MCF7and CaCo-2, McCoy’s for HCT116 and RPMI for PC3 and NCI-H727. All culture media were supplemented with 10% of FBS, 1% of penicillin-streptomycin and 2 mM glutamine.
(§3) Chemicals were solubilized in DMSO at a concentration of 10 mM (stock solution) and diluted in culture medium to the desired final concentrations.
[…] Cells were plated in 96 wells plates (4000 cells/well). Twenty-four hours after seeding, cells were exposed to chemicals. After 48 h of treatment, cells were washed in PBS and fixed in cooled 90% ethanol/5% acetic acid for 20 min and the nuclei were stained with Hoechst 33342 (B2261 Sigma). Image acquisition and analysis were performed using a CellomicsArrayScan VTI/HCS Reader (ThermoScientific, Waltham, MA, USA). The survival percentages were calculated as the percentage of cell number after compound treatment over cell number after DMSO treatment.

[14] = cytotoxic assay, nuclei count (Hoechst, HCS); assay type: cell-based; conditions: human, MCF7 cells (breast carcinoma); 48 h treatment; read-out: Cytotoxic studies IC50 MCF7
Protocol: as §1, §2, §3
(§4) The cytotoxic assay of chemical was performed at 25 µM. Cells were plated in 96 wells plates (4000 cells/well). Twenty-four hours after seeding, cells were exposed to chemicals. After 48 h of treatment, cells were washed in PBS and fixed in cooled 90% ethanol/5% acetic acid for 20 min and the nuclei were stained with Hoechst 33342 (B2261 Sigma). Image acquisition and analysis were performed using a CellomicsArrayScan VTI/HCS Reader (ThermoScientific, Waltham, MA, USA). The survival percentages were calculated as the percentage of cell number after compound treatment over cell number after DMSO treatment.

[15] = cytotoxic assay, nuclei count (Hoechst, HCS); assay type: cell-based, human; conditions: human, human skin fibroblasts (non-cancerous reference cells); 48 h treatment; some cells add low/moderate/high amplitude; read-out: Cytotoxic studies IC50 Fibroblasts
Protocol: as §1, §2, §3, §4

[16] = HCT116 cells (colorectal adenocarcinoma), read-out: Cytotoxic studies IC50 HCT116
[17] = MDA-MB-468 cells (breast carcinoma), read-out: Cytotoxic studies IC50 MDA-MB-468

T2 sequence (P22518 whole entry): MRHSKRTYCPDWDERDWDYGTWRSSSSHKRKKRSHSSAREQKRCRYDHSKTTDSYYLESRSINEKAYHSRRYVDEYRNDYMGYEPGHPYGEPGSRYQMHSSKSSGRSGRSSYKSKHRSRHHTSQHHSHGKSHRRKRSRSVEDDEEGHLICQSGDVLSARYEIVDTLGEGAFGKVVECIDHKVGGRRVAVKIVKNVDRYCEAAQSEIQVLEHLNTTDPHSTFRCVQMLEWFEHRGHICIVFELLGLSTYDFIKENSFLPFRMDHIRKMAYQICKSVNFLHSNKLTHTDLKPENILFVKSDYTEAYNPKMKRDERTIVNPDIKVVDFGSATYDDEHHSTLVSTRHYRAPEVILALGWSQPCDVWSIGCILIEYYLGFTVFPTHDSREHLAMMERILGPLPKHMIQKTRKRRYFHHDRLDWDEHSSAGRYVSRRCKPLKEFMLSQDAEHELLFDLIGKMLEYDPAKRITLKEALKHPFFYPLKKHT
T4 sequence (P50750 whole entry): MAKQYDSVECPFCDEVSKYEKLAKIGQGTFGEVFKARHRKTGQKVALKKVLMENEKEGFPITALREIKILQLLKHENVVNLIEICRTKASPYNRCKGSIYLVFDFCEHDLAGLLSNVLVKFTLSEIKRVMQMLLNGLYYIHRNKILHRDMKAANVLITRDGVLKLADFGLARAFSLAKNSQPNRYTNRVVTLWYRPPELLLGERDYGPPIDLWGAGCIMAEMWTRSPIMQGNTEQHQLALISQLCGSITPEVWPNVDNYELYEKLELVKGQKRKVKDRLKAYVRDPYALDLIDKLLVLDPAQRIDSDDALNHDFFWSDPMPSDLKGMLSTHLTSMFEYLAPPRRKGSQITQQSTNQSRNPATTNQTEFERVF
T4 sequence (O60563 whole entry partner): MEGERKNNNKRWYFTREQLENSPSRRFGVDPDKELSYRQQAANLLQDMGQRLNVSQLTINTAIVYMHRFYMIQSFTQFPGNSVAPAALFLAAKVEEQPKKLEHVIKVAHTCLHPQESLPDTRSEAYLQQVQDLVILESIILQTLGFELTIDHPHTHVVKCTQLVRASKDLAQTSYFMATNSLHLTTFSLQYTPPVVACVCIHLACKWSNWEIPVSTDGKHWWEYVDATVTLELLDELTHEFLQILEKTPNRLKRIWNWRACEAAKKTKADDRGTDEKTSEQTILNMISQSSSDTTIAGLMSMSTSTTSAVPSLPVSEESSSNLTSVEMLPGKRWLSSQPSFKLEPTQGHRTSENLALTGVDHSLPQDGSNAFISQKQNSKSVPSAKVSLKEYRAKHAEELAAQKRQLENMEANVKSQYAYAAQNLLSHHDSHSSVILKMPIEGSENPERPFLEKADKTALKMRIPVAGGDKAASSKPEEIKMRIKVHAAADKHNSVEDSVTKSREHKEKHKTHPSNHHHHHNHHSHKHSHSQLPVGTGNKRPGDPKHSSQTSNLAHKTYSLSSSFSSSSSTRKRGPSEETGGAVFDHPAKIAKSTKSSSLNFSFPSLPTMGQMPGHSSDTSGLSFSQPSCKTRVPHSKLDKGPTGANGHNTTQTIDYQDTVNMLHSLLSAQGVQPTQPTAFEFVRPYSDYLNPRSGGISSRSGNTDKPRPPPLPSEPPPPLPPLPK
T9 sequence (P49674 whole entry): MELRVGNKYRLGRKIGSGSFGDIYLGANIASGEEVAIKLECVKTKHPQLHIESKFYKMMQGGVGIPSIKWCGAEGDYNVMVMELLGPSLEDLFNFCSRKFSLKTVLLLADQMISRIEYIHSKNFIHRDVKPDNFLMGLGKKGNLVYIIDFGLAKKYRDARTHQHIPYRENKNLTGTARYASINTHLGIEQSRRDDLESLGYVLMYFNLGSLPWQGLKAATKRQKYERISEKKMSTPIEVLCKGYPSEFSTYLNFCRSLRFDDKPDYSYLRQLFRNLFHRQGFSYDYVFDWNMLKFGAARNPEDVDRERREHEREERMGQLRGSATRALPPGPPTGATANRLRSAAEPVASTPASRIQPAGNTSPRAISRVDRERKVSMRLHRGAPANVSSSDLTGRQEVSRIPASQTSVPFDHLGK
T5 sequence (P11309 whole entry): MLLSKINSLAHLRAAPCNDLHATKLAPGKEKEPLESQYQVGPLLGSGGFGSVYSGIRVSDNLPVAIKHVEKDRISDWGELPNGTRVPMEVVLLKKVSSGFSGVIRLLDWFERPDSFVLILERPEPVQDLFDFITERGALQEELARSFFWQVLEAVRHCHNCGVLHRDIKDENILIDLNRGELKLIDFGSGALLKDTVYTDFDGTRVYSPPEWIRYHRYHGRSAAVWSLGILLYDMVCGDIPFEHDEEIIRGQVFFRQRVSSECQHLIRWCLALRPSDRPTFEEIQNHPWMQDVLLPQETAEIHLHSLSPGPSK
T8 sequence (P49841 whole entry): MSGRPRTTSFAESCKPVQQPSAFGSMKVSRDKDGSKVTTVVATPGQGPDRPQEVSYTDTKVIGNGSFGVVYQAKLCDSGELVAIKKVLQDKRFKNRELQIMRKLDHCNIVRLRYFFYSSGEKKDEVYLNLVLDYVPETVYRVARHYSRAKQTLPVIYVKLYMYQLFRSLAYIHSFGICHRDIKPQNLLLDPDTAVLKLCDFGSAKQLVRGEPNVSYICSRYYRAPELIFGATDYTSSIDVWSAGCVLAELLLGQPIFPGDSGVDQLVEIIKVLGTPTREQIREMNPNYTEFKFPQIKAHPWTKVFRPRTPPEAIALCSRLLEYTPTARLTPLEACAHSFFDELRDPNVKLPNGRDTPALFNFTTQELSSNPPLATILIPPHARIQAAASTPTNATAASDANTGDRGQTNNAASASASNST
T3 sequence (Q00535 whole entry): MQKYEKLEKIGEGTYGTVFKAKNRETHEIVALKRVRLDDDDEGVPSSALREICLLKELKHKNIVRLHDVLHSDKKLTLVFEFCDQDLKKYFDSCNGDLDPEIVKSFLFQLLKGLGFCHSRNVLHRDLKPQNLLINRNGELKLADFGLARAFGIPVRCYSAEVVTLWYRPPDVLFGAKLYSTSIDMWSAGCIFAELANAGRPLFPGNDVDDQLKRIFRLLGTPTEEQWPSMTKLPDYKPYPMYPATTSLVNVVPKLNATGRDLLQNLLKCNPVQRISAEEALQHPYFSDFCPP
T3 sequence (Q15078 99-307 partner limits assumed): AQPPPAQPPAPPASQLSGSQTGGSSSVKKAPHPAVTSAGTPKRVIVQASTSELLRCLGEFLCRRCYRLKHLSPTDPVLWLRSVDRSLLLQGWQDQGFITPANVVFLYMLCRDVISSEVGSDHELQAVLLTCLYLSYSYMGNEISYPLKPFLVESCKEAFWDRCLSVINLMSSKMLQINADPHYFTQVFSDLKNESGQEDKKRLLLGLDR

SMILES | remaining activity at 1 µM [1] [%] | remaining activity at 10 µM [1] [%] | remaining activity at 1 µM [2] [%] | remaining activity at 10 µM [2] [%] | remaining activity at 1 µM [3] [%] | remaining activity at 10 µM [3] [%] | remaining activity at 1 µM [4] [%] | remaining activity at 10 µM [4] [%] | remaining activity at 1 µM [5] [%] | remaining activity at 10 µM [5] [%] | remaining activity at 1 µM [6] [%] | remaining activity at 10 µM [6] [%] | remaining activity at 1 µM [7] [%] | remaining activity at 10 µM [7] [%] | remaining activity at 1 µM [8] [%] | remaining activity at 10 µM [8] [%] | remaining activity at 1 µM [9] [%] | remaining activity at 10 µM [9] [%] | IC50 at 48 h [10] [µM] | IC50 at 48 h [11] [µM] | other results
CC(C)(C)OC(=O)N[C@H]1CC[C@H](n2cc(COc3cccc4cnc(Nc5cccc(Cl)c5)nc34)nn2)CC1 [18a, tert-Butyl ((trans)-4-(4-(((2-((3-chlorophenyl)amino)quinazolin-8-yl)oxy)methyl)-1H-1,2,3-triazol-1-yl)cyclohexyl)carbamate] | ≥ 100 | 66 | 93 | 70 | 69 | 58 | 92 | 59 | 77 | 74 | 92 | ≥ 100 | 77 | 70 | 88 | 60 | ≥ 100 | 78 | 4 | 16 | IC50 at 48 h [12]: 7 µM; IC50 at 48 h [13, 16]: 5 µM; IC50 at 48 h [13, 17]: 15 µM; IC50 at 48 h [14]: > 25 µM; IC50 at 48 h [15]: > 25 µM
CC(C)(C)OC(=O)N[C@H]1CC[C@H](n2cc(COc3cccc4cnc(Nc5cc(Cl)cc(Cl)c5)nc34)nn2)CC1 [18b, tert-Butyl ((trans)-4-(4-(((2-((3,5-dichlorophenyl)amino)quinazolin-8-yl)oxy)methyl)-1H-1,2,3-triazol-1-yl)cyclohexyl)carbamate] | ≥ 100 | 85 | 86 | 72 | 85 | 81 | 98 | 83 | 94 | 68 | ≥ 100 | ≥ 100 | 72 | 53 | 75 | 35 | ≥ 100 | 92 | 10 | > 25 | IC50 at 48 h [12]: > 25 µM; IC50 at 48 h [13, 16]: > 25 µM; IC50 at 48 h [13, 17]: > 25 µM; IC50 at 48 h [14]: > 25 µM; IC50 at 48 h [15]: > 25 µM
N[C@H]1CC[C@H](n2cc(COc3cccc4cnc(Nc5cccc(Cl)c5)nc34)nn2)CC1 [19a, 8-((1-((trans)-4-Aminocyclohexyl)-1H-1,2,3-triazol-4-yl)methoxy)-N-(3-chlorophenyl)quinazolin-2-amine hydrochloride] | 84 | 34 | 20 | 10 | ≥ 100 | 30 | 65 | 30 | 62 | 40 | 78 | 64 | 70 | 92 | 50 | 23 | 73 | 22 | 8 | 11 | pIC50 ([1]; 10 µM ATP, duplicate): 5.43; pIC50 ([2]; mouse CLK1 orthologue, read-out: IC50 MmCLK1): 6.70; IC50 at 48 h [12]: 6 µM; IC50 at 48 h [13, 16]: 7 µM; IC50 at 48 h [13, 17]: 7 µM; IC50 at 48 h [14]: 11 µM; IC50 at 48 h [15]: 1.3 µM
